# Laboratory results published in PMC11786100, “Chronic GIPR agonism results in pancreatic islet GIPR functional desensitisation” (Molecular Metabolism, 2025).
# Target: T1, SNAP-tagged mouse GLP-1R (Mus musculus, UniProt O35659)
# T1 construct: host or cells: AD-293
# T1 sequence (O35659 22-463): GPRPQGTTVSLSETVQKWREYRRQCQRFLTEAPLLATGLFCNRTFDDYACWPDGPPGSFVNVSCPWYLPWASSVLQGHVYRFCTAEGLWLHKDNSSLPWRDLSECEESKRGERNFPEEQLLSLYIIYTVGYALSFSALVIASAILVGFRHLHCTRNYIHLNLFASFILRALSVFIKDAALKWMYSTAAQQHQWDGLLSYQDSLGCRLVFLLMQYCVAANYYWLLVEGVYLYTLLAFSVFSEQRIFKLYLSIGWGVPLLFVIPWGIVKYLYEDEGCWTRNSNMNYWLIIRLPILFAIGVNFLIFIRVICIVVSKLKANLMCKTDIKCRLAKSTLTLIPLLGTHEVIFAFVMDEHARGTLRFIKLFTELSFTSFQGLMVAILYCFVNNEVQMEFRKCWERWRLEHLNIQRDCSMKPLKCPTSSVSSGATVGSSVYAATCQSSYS
# Assay: Internalisation and receptor surface expression assays in AD-293 cells
# Assay type: cell-based
# Conditions: 10 nM
# Procedure: AD-293 cells were transfected with desired plasmid DNA encoding a SNAP-tagged G-protein coupled receptor (GPCR) 24 h prior to assay. For 1 h internalisation assays, cells were labelled for 10 min with cleavable SNAP-tag probe BG-S-S-649 (New England BioLabs, US). Following 1 h treatment with specified peptide, cells were imaged at baseline and after addition of 2-mercaptoethane sulfonate (Mesna). For 4-hour GPCR surface expression assays, cells were treated with the specified peptide for 4 h, prior to 10-minute labelling with BG-S-S-649 and imaging. Full details are provided in the supplementary methods.
# AD-293 cells were added to a 96-well plate and maintained in 200 μl complete DMEM. 150 ng of mouse or human SNAP-tagged plasmid GIPR DNA, or 100 ng of mouse or human SNAP-tagged plasmid GLP-1R DNA was added to each well alongside Lipofectamine 2000 (Thermo Fisher, UK) and left for 24 hours.
# For 1 hour internalisation assays, cells were labelled with cleavable SNAP-tag probe BG-S-S-649 (New England BioLabs, US) in complete DMEM for 10 minutes prior to washing and 1 hour treatment with specified peptide, reconstituted in DMEM + 0.1% BSA. […] GPCR internalisation was quantified as the cell fluorescence following Mesna addition (representing internalised GPCR), corrected for the baseline cell fluorescence (representing total cellular GPCR). […]
substance,measurement,setting,value
GLP-1(7–36)·NH2,receptor internalisation compared to vehicle,"1-hour treatment, n = 3–4",significantly increased both mouse and human GLP-1R internalisation
same,receptor internalisation (surface expression) compared to vehicle,"4-hours treatment, n = 7–8",significantly increased both mouse and human GLP-1R internalisation
